Measured values as given in the supplement of paper PMC10331698.
± gives the standard deviation of the averaged measurements.

Experiments:
Assay in all cases: level (log10 ratio to DMSO vehicle control); higher = higher biomarker level / cell amount than vehicle control
Conditions in all cases: in DMSO
[1] = compound: C=CC(=O)OCC(F)(F)C(F)(F)C(F)(F)C(F)(F)C(F)(F)C(F)(F)C(F)(F)F [1H,1H-Perfluorooctyl acrylate]
Method: (§1)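 BioMAP Diversity Plus panel of 12 human primary cell co-culture systems (3C, 4H, LPS, SAg, BT, BF4T, BE3C, CASM3C, HDF3CGF, KF3CT, MyoF, Mphg). Compounds were added 1 h before stimulation and left for 24 h (MyoF 48 h; BT 72 h for soluble read-outs or 6 d for IgG). Biomarkers were read by ELISA, cytotoxicity by SRB, PBMC viability and proliferation by Alamar Blue. Each well value was divided by the mean of 8 DMSO control wells on the same plate and log10 transformed; duplicate blinded samples were tested at 4 concentrations.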

[2] = compound: C=C(C)C(=O)OCCC(F)(F)C(F)(F)C(F)(F)C(F)(F)C(F)(C(F)(F)F)C(F)(F)F [(Perfluoro-5-methylhexyl)ethyl 2-methylprop-2-enoate]
Method: as §1

[3] = compound: O=C(O)C(F)(F)C(F)(F)C(F)(F)C(F)(F)C(F)(F)C(F)(F)C(F)(F)C(F)F [9-H-Perfluorononanoic acid]
Method: as §1

[4] = compound: O=C(O)C(F)(F)OC(F)(F)C(F)(F)OC(F)(F)C(=O)O [Perfluoro-3,6-dioxaoctane-1,8-dioic acid]
Method: as §1

[5] = compound: O=S(=O)(O)C(F)(F)C(F)(F)C(F)(F)C(F)(F)C(F)(F)C(F)(F)F [Perfluorohexanesulfonic acid]
Method: as §1

[6] = compound: C=CC(F)(F)C(F)(F)C(F)(F)C(F)(F)C(F)(F)C(F)(F)C(F)(F)C(F)(F)C=C [1,8-Divinylperfluorooctane]
Method: as §1

[7] = compound: NC(=O)C(F)(F)C(F)(F)F [Pentafluoropropionamide]
Method: as §1

HDF3CGF:CXCL8/IL-8
level (log10) ([1]; 6700 nM): 0.0045 ± 0.0064
level (log10) ([1]; 20000 nM): 0.0045 ± 0.0064
level (log10) ([1]; 60000 nM): 0.0095 ± 0.0035
level (log10) ([2]; 6700 nM): -0.004 ± 0.0042
level (log10) ([2]; 20000 nM): 0.0025 ± 0.005
level (log10) ([3]; 6700 nM): -0.0055 ± 0.0021
level (log10) ([3]; 20000 nM): -0.0055 ± 0.0064
level (log10) ([3]; 60000 nM): 0.0015 ± 0.0035
level (log10) ([4]; 6700 nM): -0.0005 ± 0.0021
level (log10) ([4]; 20000 nM): 0.0135 ± 0.005
level (log10) ([4]; 60000 nM): 0.017 ± 0.0042
level (log10) ([5]; 6700 nM): 0.0045 ± 0.013
level (log10) ([5]; 20000 nM): 0.0035 ± 0.015
level (log10) ([5]; 60000 nM): 0.0065 ± 0.016
level (log10) ([6]; 6700 nM): -0.0095 ± 0.0021
level (log10) ([6]; 20000 nM): -0.002 ± 0.0085
level (log10) ([7]; 6700 nM): -0.006 ± 0.0057
level (log10) ([7]; 20000 nM): -0.0105 ± 0.00071
level (log10) ([7]; 60000 nM): -0.0065 ± 0.013

lMphg:CD40
level (log10) ([1]; 6700 nM): -0.0125 ± 0.049
level (log10) ([1]; 20000 nM): -0.0125 ± 0.097
level (log10) ([1]; 60000 nM): -0.0635 ± 0.039
level (log10) ([2]; 6700 nM): 0.0035 ± 0.011
level (log10) ([2]; 20000 nM): -0.0085 ± 0.0078
level (log10) ([3]; 6700 nM): 0.014 ± 0.011
level (log10) ([3]; 20000 nM): 0.003 ± 0.017
level (log10) ([3]; 60000 nM): -0.01 ± 0.024
level (log10) ([4]; 6700 nM): -0.03 ± 0.017
level (log10) ([4]; 20000 nM): -0.0085 ± 0.013
level (log10) ([4]; 60000 nM): -0.0105 ± 0.016
level (log10) ([5]; 6700 nM): -0.0205 ± 0.037
level (log10) ([5]; 20000 nM): 0.019 ± 0.011
level (log10) ([5]; 60000 nM): 0.0045 ± 0.011
level (log10) ([6]; 6700 nM): -0.04 ± 0.0099
level (log10) ([6]; 20000 nM): -0.0195 ± 0.032
level (log10) ([7]; 6700 nM): -0.0235 ± 0.022
level (log10) ([7]; 20000 nM): -0.017 ± 0.011
level (log10) ([7]; 60000 nM): -0.0115 ± 0.013

CASM3C:HLA-DR
level (log10) ([1]; 6700 nM): 0.0075 ± 0.00071
level (log10) ([1]; 20000 nM): 0.002 ± 0.018
level (log10) ([1]; 60000 nM): 0.0045 ± 0.013
level (log10) ([2]; 6700 nM): -0.0175 ± 0.019
level (log10) ([2]; 20000 nM): -0.01 ± 0.0085
level (log10) ([3]; 6700 nM): -0.01 ± 0.0071
level (log10) ([3]; 20000 nM): -0.0145 ± 0.0092
level (log10) ([3]; 60000 nM): 0.0025 ± 0.012
level (log10) ([4]; 6700 nM): -0.022 ± 0.018
level (log10) ([4]; 20000 nM): -0.0385 ± 0.019
level (log10) ([4]; 60000 nM): 0.0135 ± 0.063
level (log10) ([5]; 6700 nM): 0.0105 ± 0.015
level (log10) ([5]; 20000 nM): -0.001 ± 0.013
level (log10) ([5]; 60000 nM): -0.008 ± 0.028
level (log10) ([6]; 6700 nM): -0.0125 ± 0.011
level (log10) ([6]; 20000 nM): -0.0155 ± 0.0092
level (log10) ([7]; 6700 nM): -0.005 ± 0.0042
level (log10) ([7]; 20000 nM): 0.0045 ± 0.0092
level (log10) ([7]; 60000 nM): -0.001 ± 0.018

CASM3C:SRB
level (log10) ([1]; 6700 nM): -0.007 ± 0.011
level (log10) ([1]; 20000 nM): 0.0005 ± 0.0078
level (log10) ([1]; 60000 nM): 0.0005 ± 0.00071
level (log10) ([2]; 6700 nM): -0.0025 ± 0.005
level (log10) ([2]; 20000 nM): -0.0095 ± 0.0035
level (log10) ([3]; 6700 nM): 0.0045 ± 0.005
level (log10) ([3]; 20000 nM): 0.0035 ± 0.0035
level (log10) ([3]; 60000 nM): -0.001 ± 0.0057
level (log10) ([4]; 6700 nM): 0.0035 ± 0.0021
level (log10) ([4]; 20000 nM): -0.006 ± 0.0028
level (log10) ([4]; 60000 nM): 0.0085 ± 0.005
level (log10) ([5]; 6700 nM): -0.0045 ± 0.0021
level (log10) ([5]; 20000 nM): -0.0015 ± 0.012
level (log10) ([5]; 60000 nM): -0.0025 ± 0.016
level (log10) ([6]; 6700 nM): 0.002 ± 0.0042
level (log10) ([6]; 20000 nM): -0.003 ± 0.0014
level (log10) ([7]; 6700 nM): -0.002 ± 0.0057
level (log10) ([7]; 20000 nM): 0 ± 0.0085
level (log10) ([7]; 60000 nM): -0.0045 ± 0.00071

MyoF:SRB
level (log10) ([1]; 6700 nM): -0.003 ± 0.011
level (log10) ([1]; 20000 nM): -0.012 ± 0.018
level (log10) ([1]; 60000 nM): -0.0335 ± 0.005
level (log10) ([2]; 6700 nM): 0.001 ± 0.014
level (log10) ([2]; 20000 nM): -0.0035 ± 0.0078
level (log10) ([3]; 6700 nM): 0.015 ± 0.0042
level (log10) ([3]; 20000 nM): 0.003
level (log10) ([3]; 60000 nM): -0.0105 ± 0.0064
level (log10) ([4]; 6700 nM): 0 ± 0.011
level (log10) ([4]; 20000 nM): -0.007 ± 0.0042
level (log10) ([4]; 60000 nM): 0.0065 ± 0.0078
level (log10) ([5]; 6700 nM): 0.003 ± 0.0057
level (log10) ([5]; 20000 nM): -0.0045 ± 0.0035
level (log10) ([5]; 60000 nM): -0.0165 ± 0.021
level (log10) ([6]; 6700 nM): 0.0165 ± 0.013
level (log10) ([6]; 20000 nM): 0.006 ± 0.0057
level (log10) ([7]; 6700 nM): 0.0045 ± 0.0021
level (log10) ([7]; 20000 nM): -0.007 ± 0.0057
level (log10) ([7]; 60000 nM): -0.0015 ± 0.0035

BE3C:SRB
level (log10) ([1]; 6700 nM): 0.0005 ± 0.0078
level (log10) ([1]; 20000 nM): -0.003 ± 0.0085
level (log10) ([1]; 60000 nM): 0.0085 ± 0.015
level (log10) ([2]; 6700 nM): 0.009 ± 0.0099
level (log10) ([2]; 20000 nM): 0.0065 ± 0.016
level (log10) ([3]; 6700 nM): -0.0075 ± 0.0035
level (log10) ([3]; 20000 nM): -0.007 ± 0.0057
level (log10) ([3]; 60000 nM): -0.0105 ± 0.0035
level (log10) ([4]; 6700 nM): -0.0005 ± 0.0021
level (log10) ([4]; 20000 nM): -0.0035 ± 0.0021
level (log10) ([4]; 60000 nM): 0.0025 ± 0.011
level (log10) ([5]; 6700 nM): -0.0035 ± 0.022
level (log10) ([5]; 20000 nM): -0.013 ± 0.0085
level (log10) ([5]; 60000 nM): -0.017 ± 0.011
level (log10) ([6]; 6700 nM): -0.0005 ± 0.00071
level (log10) ([6]; 20000 nM): 0 ± 0.0014
level (log10) ([7]; 6700 nM): -0.0015 ± 0.0021
level (log10) ([7]; 20000 nM): -0.001
level (log10) ([7]; 60000 nM): -0.0015 ± 0.005

CASM3C:PAI-I
level (log10) ([1]; 6700 nM): 0 ± 0.0014
level (log10) ([1]; 20000 nM): -0.0075 ± 0.011
level (log10) ([1]; 60000 nM): 0.004 ± 0.0057
level (log10) ([2]; 6700 nM): -0.004 ± 0.0014
level (log10) ([2]; 20000 nM): 0.002 ± 0.0014
level (log10) ([3]; 6700 nM): 0.0135 ± 0.021
level (log10) ([3]; 20000 nM): -0.004 ± 0.0042
level (log10) ([3]; 60000 nM): 0.0085 ± 0.022
level (log10) ([4]; 6700 nM): 0.0025 ± 0.00071
level (log10) ([4]; 20000 nM): 0.0005 ± 0.0078
level (log10) ([4]; 60000 nM): 0.0155 ± 0.0064
level (log10) ([5]; 6700 nM): 0.001 ± 0.013
level (log10) ([5]; 20000 nM): 0.002 ± 0.0028
level (log10) ([5]; 60000 nM): 0.006
level (log10) ([6]; 6700 nM): -0.0015 ± 0.00071
level (log10) ([6]; 20000 nM): 0.004 ± 0.0028
level (log10) ([7]; 6700 nM): -0.009 ± 0.0099
level (log10) ([7]; 20000 nM): -0.007 ± 0.014
level (log10) ([7]; 60000 nM): 0.0005 ± 0.0064

HDF3CGF:PAI-I
level (log10) ([1]; 6700 nM): 0.032 ± 0.011
level (log10) ([1]; 20000 nM): 0.0515 ± 0.037
level (log10) ([1]; 60000 nM): 0.036 ± 0.069
level (log10) ([2]; 6700 nM): -0.037 ± 0.0028
level (log10) ([2]; 20000 nM): -0.0385 ± 0.019
level (log10) ([3]; 6700 nM): -0.0135 ± 0.0092
level (log10) ([3]; 20000 nM): 0.004 ± 0.0028
level (log10) ([3]; 60000 nM): 0.0175 ± 0.023
level (log10) ([4]; 6700 nM): 0.0055 ± 0.015
level (log10) ([4]; 20000 nM): 0.0135 ± 0.029
level (log10) ([4]; 60000 nM): 0.0295 ± 0.012
level (log10) ([5]; 6700 nM): -0.0185 ± 0.019
level (log10) ([5]; 20000 nM): -0.0145 ± 0.023
level (log10) ([5]; 60000 nM): -0.004 ± 0.0057
level (log10) ([6]; 6700 nM): 0 ± 0.013
level (log10) ([6]; 20000 nM): -0.0065 ± 0.012
level (log10) ([7]; 6700 nM): 0.0125 ± 0.04
level (log10) ([7]; 20000 nM): -0.011 ± 0.044
level (log10) ([7]; 60000 nM): 0 ± 0.014
